# Measured values reported in patent US9469650B2, “Melampomagnolide B derivatives” (BOARD OF TRUSTEES OF THE UNIVERSITY OF ARKANSAS, priority 2013, dated 2016).
# Columns and labels:
# HCT-116 = test: panel of 60 human tumor cell lines, growth inhibition (Colon Cancer); details: HCT-116
# NCI-H522 = test: panel of 60 human tumor cell lines, growth inhibition (Non-Small Cell Lung Cancer); details: NCI-H522
# SNB-19 = test: panel of 60 human tumor cell lines, growth inhibition (CNS Cancer); details: SNB-19
# KM12 = test: panel of 60 human tumor cell lines, growth inhibition (Colon Cancer); details: KM12
# SK-OV-3 = test: panel of 60 human tumor cell lines, growth inhibition (Ovarian Cancer); details: SK-OV-3
# SK-MEL-28 = test: panel of 60 human tumor cell lines, growth inhibition (Melanoma); details: SK-MEL-28
# RXF 393 = test: panel of 60 human tumor cell lines, growth inhibition (Renal Cancer); details: RXF 393
# T-47D = test: panel of 60 human tumor cell lines, growth inhibition (Breast Cancer); details: T-47D
# HCC-2998 = test: panel of 60 human tumor cell lines, growth inhibition (Colon Cancer); details: HCC-2998
# CCRF-CEM = test: panel of 60 human tumor cell lines, growth inhibition (Leukemia)
# OVCAR-5 = test: panel of 60 human tumor cell lines, growth inhibition (Ovarian Cancer); details: OVCAR-5
# UACC-62 = test: panel of 60 human tumor cell lines, growth inhibition (Melanoma); details: UACC-62
# UO-31 = test: panel of 60 human tumor cell lines, growth inhibition (Renal Cancer); details: UO-31
# SNB-75 = test: panel of 60 human tumor cell lines, growth inhibition (CNS Cancer); details: SNB-75
# A498 = test: panel of 60 human tumor cell lines, growth inhibition (Renal Cancer); details: A498
# 786-0 = test: as above; details: 786-0
# NCI/ADR-RES = test: panel of 60 human tumor cell lines, growth inhibition (Ovarian Cancer)
# DU-145 = test: panel of 60 human tumor cell lines, growth inhibition (Prostate Cancer); details: DU-145
# NCI-H23 = test: panel of 60 human tumor cell lines, growth inhibition (Non-Small Cell Lung Cancer); details: NCI-H23
smiles,measurement,setting,value
C=C1C(=O)O[C@H]2[C@H]1CC/C(COC(=O)NCCN1CCCCC1)=C\CC[C@@]1(C)O[C@@H]21 [JVM 2-13],GI50,HCT-116,2.72 µM
same,TGI,HCT-116,11.4 µM
same,Percent Growth,HCT-116; Log10 Concentration −4.0,−92%
same,Percent Growth,HCT-116; Log10 Concentration −5.0,5%
same,Percent Growth,HCT-116; Log10 Concentration −6.0,84%
same,Percent Growth,HCT-116; Log10 Concentration −7.0,96%
same,Percent Growth,HCT-116; Log10 Concentration −8.0,95%
same,CC50,HCT-116; read-out: LC50,37 µM
same,GI50,NCI-H522,1.12 µM
same,TGI,NCI-H522,2.86 µM
same,Percent Growth,NCI-H522; Log10 Concentration −4.0,−65%
same,Percent Growth,NCI-H522; Log10 Concentration −5.0,−67%
same,Percent Growth,NCI-H522; Log10 Concentration −6.0,56%
same,Percent Growth,NCI-H522; Log10 Concentration −7.0,105%
same,Percent Growth,NCI-H522; Log10 Concentration −8.0,99%
same,GI50,SNB-19,16.8 µM
same,TGI,SNB-19,15.1 µM
same,Percent Growth,SNB-19; Log10 Concentration −4.0,−71%
same,Percent Growth,SNB-19; Log10 Concentration −5.0,85%
same,Percent Growth,SNB-19; Log10 Concentration −6.0,96%
same,Percent Growth,SNB-19; Log10 Concentration −7.0,97%
same,Percent Growth,SNB-19; Log10 Concentration −8.0,98%
same,GI50,KM12,14.4 µM
same,TGI,KM12,29.8 µM
same,Percent Growth,KM12; Log10 Concentration −4.0,−83%
same,Percent Growth,KM12; Log10 Concentration −5.0,75%
same,Percent Growth,KM12; Log10 Concentration −6.0,101%
same,Percent Growth,KM12; Log10 Concentration −7.0,106%
same,Percent Growth,KM12; Log10 Concentration −8.0,106%
same,GI50,SK-OV-3,21 µM
same,TGI,SK-OV-3,45.8 µM
same,Percent Growth,SK-OV-3; Log10 Concentration −4.0,−50%
same,Percent Growth,SK-OV-3; Log10 Concentration −5.0,97%
same,Percent Growth,SK-OV-3; Log10 Concentration −6.0,97%
same,Percent Growth,SK-OV-3; Log10 Concentration −7.0,103%
same,Percent Growth,SK-OV-3; Log10 Concentration −8.0,92%
same,GI50,SK-MEL-28,3.35 µM
same,TGI,SK-MEL-28,14 µM
same,Percent Growth,SK-MEL-28; Log10 Concentration −4.0,−81%
same,Percent Growth,SK-MEL-28; Log10 Concentration −5.0,14%
same,Percent Growth,SK-MEL-28; Log10 Concentration −6.0,90%
same,Percent Growth,SK-MEL-28; Log10 Concentration −7.0,100%
same,Percent Growth,SK-MEL-28; Log10 Concentration −8.0,98%
same,GI50,RXF 393,2.11 µM
same,TGI,RXF 393,8.93 µM
same,Percent Growth,RXF 393; Log10 Concentration −4.0,−84%
same,Percent Growth,RXF 393; Log10 Concentration −5.0,−4%
same,Percent Growth,RXF 393; Log10 Concentration −6.0,76%
same,Percent Growth,RXF 393; Log10 Concentration −7.0,86%
same,Percent Growth,RXF 393; Log10 Concentration −8.0,98%
same,GI50,T-47D,2.38 µM
same,TGI,T-47D,12.6 µM
same,Percent Growth,T-47D; Log10 Concentration −4.0,−65%
same,Percent Growth,T-47D; Log10 Concentration −5.0,7%
same,Percent Growth,T-47D; Log10 Concentration −6.0,76%
same,Percent Growth,T-47D; Log10 Concentration −7.0,88%
same,Percent Growth,T-47D; Log10 Concentration −8.0,82%
same,GI50,HCC-2998,18.5 µM
same,TGI,HCC-2998,36 µM
same,Percent Growth,HCC-2998; Log10 Concentration −4.0,−77%
same,Percent Growth,HCC-2998; Log10 Concentration −5.0,96%
same,Percent Growth,HCC-2998; Log10 Concentration −6.0,104%
same,Percent Growth,HCC-2998; Log10 Concentration −7.0,105%
same,Percent Growth,HCC-2998; Log10 Concentration −8.0,99%
same,GI50,CCRF-CEM,3.03 µM
same,TGI,CCRF-CEM,12.1 µM
same,Percent Growth,CCRF-CEM; Log10 Concentration −4.0,−41%
same,Percent Growth,CCRF-CEM; Log10 Concentration −5.0,4%
same,Percent Growth,CCRF-CEM; Log10 Concentration −6.0,93%
same,Percent Growth,CCRF-CEM; Log10 Concentration −7.0,109%
same,Percent Growth,CCRF-CEM; Log10 Concentration −8.0,104%
same,GI50,OVCAR-5,10.6 µM
same,TGI,OVCAR-5,24.2 µM
same,Percent Growth,OVCAR-5; Log10 Concentration −4.0,−86%
same,Percent Growth,OVCAR-5; Log10 Concentration −5.0,53%
same,Percent Growth,OVCAR-5; Log10 Concentration −6.0,82%
same,Percent Growth,OVCAR-5; Log10 Concentration −7.0,87%
same,Percent Growth,OVCAR-5; Log10 Concentration −8.0,84%
same,GI50,UACC-62,4.86 µM
same,TGI,UACC-62,18.9 µM
same,Percent Growth,UACC-62; Log10 Concentration −4.0,−85%
same,Percent Growth,UACC-62; Log10 Concentration −5.0,33%
same,Percent Growth,UACC-62; Log10 Concentration −6.0,88%
same,Percent Growth,UACC-62; Log10 Concentration −7.0,95%
same,Percent Growth,UACC-62; Log10 Concentration −8.0,95%
same,GI50,UO-31,3.34 µM
same,TGI,UO-31,16.1 µM
same,Percent Growth,UO-31; Log10 Concentration −4.0,−81%
same,Percent Growth,UO-31; Log10 Concentration −5.0,21%
same,Percent Growth,UO-31; Log10 Concentration −6.0,82%
same,Percent Growth,UO-31; Log10 Concentration −7.0,91%
same,Percent Growth,UO-31; Log10 Concentration −8.0,91%
same,GI50,SNB-75,10.4 µM
same,TGI,SNB-75,2.256−5 M
same,Percent Growth,SNB-75; Log10 Concentration −4.0,−96%
same,Percent Growth,SNB-75; Log10 Concentration −5.0,52%
same,Percent Growth,SNB-75; Log10 Concentration −6.0,73%
same,Percent Growth,SNB-75; Log10 Concentration −7.0,75%
same,Percent Growth,SNB-75; Log10 Concentration −8.0,75%
same,GI50,A498,11.8 µM
same,TGI,A498,25 µM
same,Percent Growth,A498; Log10 Concentration −4.0,−92%
same,Percent Growth,A498; Log10 Concentration −5.0,61%
same,Percent Growth,A498; Log10 Concentration −6.0,71%
same,Percent Growth,A498; Log10 Concentration −7.0,65%
same,Percent Growth,A498; Log10 Concentration −8.0,73%
same,GI50,786-0,3.95 µM
same,TGI,786-0,17.3 µM
same,Percent Growth,786-0; Log10 Concentration −4.0,−74%
same,Percent Growth,786-0; Log10 Concentration −5.0,23%
same,Percent Growth,786-0; Log10 Concentration −6.0,90%
same,Percent Growth,786-0; Log10 Concentration −7.0,89%
same,Percent Growth,786-0; Log10 Concentration −8.0,86%
same,GI50,NCI/ADR-RES,31.2 µM
same,TGI,NCI/ADR-RES,>100 µM
same,Percent Growth,NCI/ADR-RES; Log10 Concentration −4.0,4%
same,Percent Growth,NCI/ADR-RES; Log10 Concentration −5.0,95%
same,Percent Growth,NCI/ADR-RES; Log10 Concentration −6.0,103%
same,Percent Growth,NCI/ADR-RES; Log10 Concentration −7.0,107%
same,Percent Growth,NCI/ADR-RES; Log10 Concentration −8.0,103%
same,GI50,DU-145,4.89 µM
same,TGI,DU-145,16.6 µM
same,Percent Growth,DU-145; Log10 Concentration −4.0,−97%
same,Percent Growth,DU-145; Log10 Concentration −5.0,27%
same,Percent Growth,DU-145; Log10 Concentration −6.0,101%
same,Percent Growth,DU-145; Log10 Concentration −7.0,108%
same,Percent Growth,DU-145; Log10 Concentration −8.0,110%
same,GI50,NCI-H23,11.3 µM
same,TGI,NCI-H23,27.2 µM
same,Percent Growth,NCI-H23; Log10 Concentration −4.0,−74%
same,Percent Growth,NCI-H23; Log10 Concentration −5.0,57%
same,Percent Growth,NCI-H23; Log10 Concentration −6.0,104%
same,Percent Growth,NCI-H23; Log10 Concentration −7.0,100%
same,Percent Growth,NCI-H23; Log10 Concentration −8.0,98%
